According to US9963442B2, “Pyridones as herbicides” (E I DU PONT DE NEMOURS AND COMPANY, priority 2014, dated 2018):

Legend:
Assay type in all cases: in vivo
[1] = test system: Italian ryegrass (Lolium multiflorum); assay: Test A preemergence, directed soil spray; details: approx. 10 days
Description: (§1) Seeds of plant species selected from barnyardgrass (Echinochloa crus-galli), kochia (Kochia scoparia), ragweed (common ragweed, Ambrosia elatior), Italian ryegrass (Lolium multiflorum), giant foxtail (Setaria faberii), and pigweed (Amaranthus retroflexus) were planted into a blend of loam soil and sand and treated preemergence with a directed soil spray using test chemicals formulated in a non-phytotoxic solvent mixture which included a surfactant. At the same time, plants selected from these weed species and also wheat (Triticum aestivum), corn (Zea mays), blackgrass (Alopecurus myosuroides), and galium (catchweed bedstraw, Galium aparine) were planted in pots containing the same blend of loam soil and sand and treated with postemergence applications of test chemicals formulated in the same manner. Plants ranged in height from 2 to 10 cm and were in the one- to two-leaf stage for the postemergence treatment. Treated plants and untreated controls were maintained in a greenhouse for approximately 10 days, after which time all treated plants were compared to untreated controls and visually evaluated for injury. Plant response ratings, summarized in Table A, are based on a 0 to 100 scale where 0 is no effect and 100 is complete control. A dash (-) response means no test result.

[2] = test system: barnyardgrass (Echinochloa crus-galli); assay: Test A preemergence, directed soil spray; details: approx. 10 days
Description: as §1

[3] = test system: giant foxtail (Setaria faberii); assay: Test A preemergence, directed soil spray; details: approx. 10 days
Description: as §1

[4] = test system: kochia (Kochia scoparia); assay: Test A preemergence, directed soil spray; details: approx. 10 days
Description: as §1

[5] = test system: pigweed (Amaranthus retroflexus); assay: Test A preemergence, directed soil spray; details: approx. 10 days
Description: as §1

[6] = test system: ragweed (common ragweed, Ambrosia elatior); assay: Test A preemergence, directed soil spray; details: approx. 10 days
Description: as §1

[7] = test system: Italian ryegrass (Lolium multiflorum); assay: Test A postemergence application; details: approx. 10 days
Description: as §1

[8] = test system: barnyardgrass (Echinochloa crus-galli); assay: Test A postemergence application; details: approx. 10 days
Description: as §1

[9] = test system: blackgrass (Alopecurus myosuroides); assay: Test A postemergence application; details: approx. 10 days
Description: as §1

[10] = test system: corn (Zea mays); assay: Test A postemergence application; details: approx. 10 days
Description: as §1

[11] = test system: galium (catchweed bedstraw, Galium aparine); assay: Test A postemergence application; details: approx. 10 days
Description: as §1

[12] = test system: giant foxtail (Setaria faberii); assay: Test A postemergence application; details: approx. 10 days
Description: as §1

[13] = test system: kochia (Kochia scoparia); assay: Test A postemergence application; details: approx. 10 days
Description: as §1

[14] = test system: pigweed (Amaranthus retroflexus); assay: Test A postemergence application; details: approx. 10 days
Description: as §1

[15] = test system: ragweed (common ragweed, Ambrosia elatior); assay: Test A postemergence application; details: approx. 10 days
Description: as §1

[16] = test system: wheat (Triticum aestivum); assay: Test A postemergence application; details: approx. 10 days
Description: as §1

[17] = test system: barnyardgrass (Echinochloa crus-galli); assay: Test B flooded paddy test; design: key: 0 = no effect, 100 = complete control; details: Flood, 250 g ai/ha applied to paddy water at 2-leaf stage; visually evaluated after 13 to 15 days; scale 0 (no effect) to 100 (complete control)
Procedure: (§2) Plant species in the flooded paddy test selected from rice (Oryza sativa), sedge, umbrella (small-flower umbrella sedge, Cyperus difformis), ducksalad (Heteranthera limosa), and barnyardgrass (Echinochloa crus-galli) were grown to the 2-leaf stage for testing. At time of treatment, test pots were flooded to 3 cm above the soil surface, treated by application of test compounds directly to the paddy water, and then maintained at that water depth for the duration of the test. Treated plants and controls were maintained in a greenhouse for 13 to 15 days, after which time all species were compared to controls and visually evaluated. Plant response ratings, summarized in Table B, are based on a scale of 0 to 100 where 0 is no effect and 100 is complete control. A dash (-) response means no test result.

[18] = test system: ducksalad (Heteranthera limosa); assay: Test B flooded paddy test; design: key: 0 = no effect, 100 = complete control; details: Flood, 250 g ai/ha applied to paddy water at 2-leaf stage; visually evaluated after 13 to 15 days; scale 0 (no effect) to 100 (complete control)
Procedure: as §2

[19] = test system: rice (Oryza sativa); assay: Test B flooded paddy test; design: key: 0 = no effect, 100 = complete control; details: Flood, 250 g ai/ha applied to paddy water at 2-leaf stage; visually evaluated after 13 to 15 days; scale 0 (no effect) to 100 (complete control)
Procedure: as §2

[20] = test system: sedge, umbrella (small-flower umbrella sedge, Cyperus difformis); assay: Test B flooded paddy test; design: key: 0 = no effect, 100 = complete control; details: Flood, 250 g ai/ha applied to paddy water at 2-leaf stage; visually evaluated after 13 to 15 days; scale 0 (no effect) to 100 (complete control)
Procedure: as §2

Structure (SMILES)	Plant response rating (0 to 100 scale, 0 no effect, 100 complete control), Ryegrass, Italian ([1]; 31 g ai/ha)	Plant response rating (0 to 100 scale, 0 no effect, 100 complete control), Ryegrass, Italian ([1]; 125 g ai/ha)	Plant response rating (0 to 100 scale, 0 no effect, 100 complete control), Barnyardgrass ([2]; 31 g ai/ha)	Plant response rating (0 to 100 scale, 0 no effect, 100 complete control), Barnyardgrass ([2]; 125 g ai/ha)	Plant response rating (0 to 100 scale, 0 no effect, 100 complete control), Foxtail, Giant ([3]; 31 g ai/ha)	Plant response rating (0 to 100 scale, 0 no effect, 100 complete control), Foxtail, Giant ([3]; 125 g ai/ha)	Plant response rating (0 to 100 scale, 0 no effect, 100 complete control), Kochia ([4]; 31 g ai/ha)	Plant response rating (0 to 100 scale, 0 no effect, 100 complete control), Kochia ([4]; 125 g ai/ha)	Plant response rating (0 to 100 scale, 0 no effect, 100 complete control), Pigweed ([5]; 31 g ai/ha)	Plant response rating (0 to 100 scale, 0 no effect, 100 complete control), Pigweed ([5]; 125 g ai/ha)	Plant response rating (0 to 100 scale, 0 no effect, 100 complete control), Ragweed ([6]; 125 g ai/ha)	Plant response rating (0 to 100 scale, 0 no effect, 100 complete control), Ryegrass, Italian ([7]; 31 g ai/ha)	Plant response rating (0 to 100 scale, 0 no effect, 100 complete control), Ryegrass, Italian ([7]; 125 g ai/ha)	Plant response rating (0 to 100 scale, 0 no effect, 100 complete control), Barnyardgrass ([8]; 31 g ai/ha)	Plant response rating (0 to 100 scale, 0 no effect, 100 complete control), Barnyardgrass ([8]; 125 g ai/ha)	Plant response rating (0 to 100 scale, 0 no effect, 100 complete control), Blackgrass ([9]; 31 g ai/ha)	Plant response rating (0 to 100 scale, 0 no effect, 100 complete control), Blackgrass ([9]; 125 g ai/ha)	Plant response rating (0 to 100 scale, 0 no effect, 100 complete control), Corn ([10]; 31 g ai/ha)	Plant response rating (0 to 100 scale, 0 no effect, 100 complete control), Corn ([10]; 125 g ai/ha)	Plant response rating (0 to 100 scale, 0 no effect, 100 complete control), Galium ([11]; 31 g ai/ha)	also measured
O=c1cccc(Oc2ncc(Cl)cn2)n1-c1ncc(C(F)(F)F)cn1 [Compound 5]	0	0	0	80	70	100	0	100	90	100	80	0	30	0	20	30	50	0	10	50	Plant response rating (0 to 100 scale, 0 no effect, 100 complete control), Ragweed ([6]; 31 g ai/ha): 0; Plant response rating (0 to 100 scale, 0 no effect, 100 complete control), Galium ([11]; 125 g ai/ha): 90; Plant response rating (0 to 100 scale, 0 no effect, 100 complete control), Foxtail, Giant ([12]; 31 g ai/ha): 10; Plant response rating (0 to 100 scale, 0 no effect, 100 complete control), Foxtail, Giant ([12]; 125 g ai/ha): 80; Plant response rating (0 to 100 scale, 0 no effect, 100 complete control), Kochia ([13]; 31 g ai/ha): 40; Plant response rating (0 to 100 scale, 0 no effect, 100 complete control), Kochia ([13]; 125 g ai/ha): 60; Plant response rating (0 to 100 scale, 0 no effect, 100 complete control), Pigweed ([14]; 31 g ai/ha): 70; Plant response rating (0 to 100 scale, 0 no effect, 100 complete control), Pigweed ([14]; 125 g ai/ha): 90; Plant response rating (0 to 100 scale, 0 no effect, 100 complete control), Ragweed ([15]; 31 g ai/ha): 30; Plant response rating (0 to 100 scale, 0 no effect, 100 complete control), Ragweed ([15]; 125 g ai/ha): 80; Plant response rating (0 to 100 scale, 0 no effect, 100 complete control), Wheat ([16]; 31 g ai/ha): 0; Plant response rating (0 to 100 scale, 0 no effect, 100 complete control), Wheat ([16]; 125 g ai/ha): 0; Plant response rating, Barnyardgrass [17]: 0; Plant response rating, Ducksalad [18]: 85; Plant response rating, Rice [19]: 0; Plant response rating, Sedge, Umbrella [20]: 75
O=c1cccc(Oc2ncc(Cl)cn2)n1-c1ccc(Cl)cn1 [Compound 8]	0	10	0	30	40	80	30	100	70	100	20	10	20	10	30	10	20	10	20	60	Plant response rating (0 to 100 scale, 0 no effect, 100 complete control), Ragweed ([6]; 31 g ai/ha): 0; Plant response rating (0 to 100 scale, 0 no effect, 100 complete control), Galium ([11]; 125 g ai/ha): 70; Plant response rating (0 to 100 scale, 0 no effect, 100 complete control), Foxtail, Giant ([12]; 31 g ai/ha): 20; Plant response rating (0 to 100 scale, 0 no effect, 100 complete control), Foxtail, Giant ([12]; 125 g ai/ha): 70; Plant response rating (0 to 100 scale, 0 no effect, 100 complete control), Kochia ([13]; 31 g ai/ha): 70; Plant response rating (0 to 100 scale, 0 no effect, 100 complete control), Kochia ([13]; 125 g ai/ha): 90; Plant response rating (0 to 100 scale, 0 no effect, 100 complete control), Pigweed ([14]; 31 g ai/ha): 80; Plant response rating (0 to 100 scale, 0 no effect, 100 complete control), Pigweed ([14]; 125 g ai/ha): 90; Plant response rating (0 to 100 scale, 0 no effect, 100 complete control), Ragweed ([15]; 31 g ai/ha): 30; Plant response rating (0 to 100 scale, 0 no effect, 100 complete control), Ragweed ([15]; 125 g ai/ha): 70; Plant response rating (0 to 100 scale, 0 no effect, 100 complete control), Wheat ([16]; 31 g ai/ha): 0; Plant response rating (0 to 100 scale, 0 no effect, 100 complete control), Wheat ([16]; 125 g ai/ha): 0; Plant response rating, Barnyardgrass [17]: 0; Plant response rating, Ducksalad [18]: 75; Plant response rating, Rice [19]: 0; Plant response rating, Sedge, Umbrella [20]: 65
O=c1cccc(Oc2ncc(Cl)cn2)n1-c1ccc(F)cn1 [Compound 9]	0	0	0	0	10	70	20	50	50	80	70	0	20	0	10	0	10	10	10	30	Plant response rating (0 to 100 scale, 0 no effect, 100 complete control), Galium ([11]; 125 g ai/ha): 60; Plant response rating (0 to 100 scale, 0 no effect, 100 complete control), Foxtail, Giant ([12]; 31 g ai/ha): 0; Plant response rating (0 to 100 scale, 0 no effect, 100 complete control), Foxtail, Giant ([12]; 125 g ai/ha): 20; Plant response rating (0 to 100 scale, 0 no effect, 100 complete control), Kochia ([13]; 31 g ai/ha): 70; Plant response rating (0 to 100 scale, 0 no effect, 100 complete control), Kochia ([13]; 125 g ai/ha): 90; Plant response rating (0 to 100 scale, 0 no effect, 100 complete control), Pigweed ([14]; 31 g ai/ha): 50; Plant response rating (0 to 100 scale, 0 no effect, 100 complete control), Pigweed ([14]; 125 g ai/ha): 80; Plant response rating (0 to 100 scale, 0 no effect, 100 complete control), Ragweed ([15]; 31 g ai/ha): 20; Plant response rating (0 to 100 scale, 0 no effect, 100 complete control), Ragweed ([15]; 125 g ai/ha): 40; Plant response rating (0 to 100 scale, 0 no effect, 100 complete control), Wheat ([16]; 31 g ai/ha): 0; Plant response rating (0 to 100 scale, 0 no effect, 100 complete control), Wheat ([16]; 125 g ai/ha): 0; Plant response rating, Barnyardgrass [17]: 0; Plant response rating, Ducksalad [18]: 60; Plant response rating, Rice [19]: 0; Plant response rating, Sedge, Umbrella [20]: 40
